Test system: PMA stimulated PGE2 Levels in Human Skin Fibroblasts
Settings: primary human foreskin fibroblasts, pinolenic acid even at levels of 10 ng/ml, 24 h pre-incubation
Description: A reduction of the levels of ICAM and PGE2 is indicative for the anti-inflammatory effect. Primary human foreskin fibroblasts at passage 2 (P2) were seeded into 96-well plates at 10000 cells/well and maintained for 24 hours in an atmosphere of 5% carbon dioxide in Dulbeccos Modified Eagles Medium (DMEM) supplemented with 10% foetal calf serum. […] PMA represents an external stressor which induces oxidative stress and inflammatory responses in cells. The fibroblasts/media were then analysed as described below immediately or snap frozen in liquid nitrogen and stored at −70° C. for future analysis. […] PGE2 levels in the medium were determined with a Biotrak PGE2 immunoassay kit (Amersham, UK). The assay is based on the competition between unlabelled PGE2 in the sample and a fixed quantity of horseradish peroxidase labelled PGE2 for a limited amount of fixed PGE2 specific antibody. Concentrations of unlabelled sample PGE2 are determined according to a standard curve which was obtained at the same time.

Question: `CCCCC/C=C\C/C=C\CC/C=C\CCCC(=O)O` [Pinolenic acid, 5,9,12 C18:3 fatty acid] was tested. Which “inflammatory response as measured by PGE2 production” value did it give?
Answer: dramatically reduces the inflammatory response

Reference: patent publication US6479070B1, “Compositions containing pinolenic acid and its use as a health component” (Unilever Patent Holdings, priority 1999, dated 2002)
